Laboratory results reported in PubChem BioAssay AID179 (DTP/NCI, 2004).
Calls of active or inactive are those of the source.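 How the source made its calls: active means compounds giving half or more protection of infected cells from virus-caused growth loss, again on retest; inactive means the rest.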

System: CEM cells HIV-1 protection, formazan growth assay
Experiment: NCI AIDS Antiviral Assay
Conditions: for IC50: measured here: growth of uninfected CEM cells
Summary of the method: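 Human CEM cells, uninfected and HIV-1-infected, exposed to five drug concentrations; growth measured by soluble formazan assay and scored as percent protection from infection, with protecting compounds retested.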

Nc1nc(Cl)cc(Nc2ccc3c(c2)CCC3)n1
EC50: > 200 µM
IC50: 22.4 µM

Cc1ccc2c(c1)nc1n2C(N)=Nc2ccccc2S1
EC50: > 200 µM
IC50: 11.5 µM

CC1(C)O[C@H]2Cn3c(c(C#N)c4ccccc43)[C@H]2O1
EC50: > 200 µM
IC50: 178 µM

NC(=S)/N=C/c1c(O)c2ccccc2oc1=O
EC50: > 55 µM
IC50: > 55 µM

c1ccc2c(c1)SCCCSCCCS2
EC50: > 28.2 µM
IC50: > 28.2 µM

C[C@]12Cc3conc3C(O)=C1CC[C@@H]1C2CC[C@@]2(C)C1CC[C@@H]2O (stereo partly drawn)
EC50: > 204 µM
IC50: 25.7 µM

O=C(/C=C/c1cccc2ccccc12)c1ccccc1Cl
EC50: > 12.9 µM
IC50: 11 µM

NC(N)=NS(=O)(=O)c1ccc(Nc2c3ccccc3nc3c(C(=O)NCCO)cccc23)cc1
EC50: > 200 µM
IC50: 8.91 µM

CC[C@H]1CN2CCc3cc(OC)c(OC)cc3[C@@H]2C[C@@H]1C[C@@H]1c2cc(OC)c(OC)cc2CCN1N=O
outcome: inactive

COc1ccc(NC(=O)CC(=O)N2N=C(N(CCC#N)c3cccc(C)c3)CC2c2ccccc2)cc1 (stereo not drawn)
EC50: > 100 µM
IC50: > 100 µM

Cc1cn(C2CC(N=[N+]=[N-])C(C(=O)O)O2)c(=O)[nH]c1=O (stereo not drawn)
EC50: 11.7 µM
IC50: > 200 µM

Cc1ccc(-c2n[nH]c(=O)n2/N=C\c2ccccc2O)cc1
EC50: > 200 µM
IC50: > 200 µM

CCOC(=O)C1([Se]c2ccccc2)CCCC1=O (stereo not drawn)
EC50: > 219 µM
IC50: 20.4 µM

COc1cc(C2c3cc4c(cc3OC(NNc3ccccc3)C2C)OCO4)cc(OC)c1OC (stereo not drawn)
EC50: > 200 µM
IC50: 3.89 µM

COc1ccc2c(=O)c(O)c(-c3ccc(OC)c(OC)c3)oc2c1
EC50: > 200 µM
IC50: > 200 µM

COC(=O)C(C(=O)C(=O)Nc1ccc(C)cc1C)c1nc2ccc([N+](=O)[O-])cc2[nH]c1=O (stereo not drawn)
EC50: > 575 µM
IC50: 129 µM

COc1ccc(C(=C(c2ccc(OC)cc2)c2ccc(OC)cc2)c2ccc(OC)cc2)cc1
EC50: > 100 µM
IC50: 46.8 µM

Nc1nc(N)c2cnnn2n1
EC50: > 295 µM
IC50: > 295 µM

Nc1ccc2ccc(N3CCNCC3)nc2n1
EC50: > 200 µM
IC50: 46.8 µM

CC(CCc1nc2ccccc2[nH]1)C1CCC2C3CC[C@@H]4C[C@H](O)CC[C@]4(C)C3CC[C@]12C (stereo partly drawn)
EC50: > 50.1 µM
IC50: > 50.1 µM

CC(OC1CC(=O)CC2C(=O)C=CC(=O)C12)c1ccccc1 (stereo not drawn)
EC50: > 603 µM
IC50: 3.31 µM

CC(=O)Nc1ccc(OCC(O)CO)cc1 (stereo not drawn)
EC50: > 1120 µM
IC50: 832 µM

CS(=O)(=O)OC1C(COC(=O)c2ccccc2)OC2C1Oc1nc(=O)ccn12 (stereo not drawn)
EC50: > 200 µM
IC50: > 200 µM

O=C1c2ccccc2C(=O)c2c1ccc(O)c2O
EC50: > 72.4 µM
IC50: 42.7 µM

Cc1ccc(NC(=O)c2[nH]c(=S)nc(N)c2-c2ccccc2C)cc1C
EC50: > 692 µM
IC50: > 692 µM

CN(C)c1cc(CNCCc2cnc[nH]2)nc(CNCCc2cnc[nH]2)c1
EC50: > 200 µM
IC50: 12.3 µM

Cn1c(O)c(N=NC(=S)NC(=O)C23CC4CC(CC(C4)C2)C3)c2ccccc21
outcome: inactive

N#Cc1sc2nc3ccccc3n2c1N
EC50: > 200 µM
IC50: 28.8 µM

FC(F)(Sc1ncccn1)c1nc(-c2ccccc2)no1
EC50: > 200 µM
IC50: 53.7 µM

CC(=O)CC(=O)N(CCN(C(=O)CC(C)=O)c1ccccc1)c1ccccc1
EC50: > 178 µM
IC50: > 178 µM

COc1c(C)cc(Cc2cc(C)c(OC)c(Br)c2)cc1Br
EC50: > 200 µM
IC50: 91.2 µM

CC(C)C(NCc1c2ccccc2nc2ccccc12)C(=O)O (stereo not drawn)
outcome: inactive

CCOP(=O)(/C=C/c1ccccc1)OCC
outcome: inactive

Clc1ccc2nncc(N3CC3)c2c1
outcome: inactive

COc1ccc(-c2oc(/C=N/NC(N)=S)c([N+](=O)[O-])c2-c2ccc(OC)c(OC)c2)cc1OC
EC50: > 20.4 µM
IC50: > 20.4 µM

Cc1nc(C(=Nc2ccc(Br)cc2)Nn2cnnc2)no1
EC50: > 200 µM

CC1(C)C(=O)C2(OS(=O)(=O)C(F)(F)F)CCC1C2 (stereo not drawn)
EC50: > 200 µM
IC50: > 200 µM

CCC[CH2][Sn]([CH2]CCC)([O]C(=O)C(OC)c1ccccc1)[O]C(=O)C(OC)c1ccccc1 (stereo not drawn)
EC50: > 6.76 µM
IC50: 0.182 µM

O=C1CC2(CCN(CC3COc4ccccc4O3)CC2)C(=O)N1N1CCCCCC1 (stereo not drawn)
EC50: > 200 µM
IC50: 72.4 µM

CCCCCCCCCCOC(=O)c1cc[n+](C)cc1
outcome: inactive

CCCC1=C(CC)C(C(=O)Nc2c(C)cccc2C)=NC(S)N1 (stereo not drawn)
EC50: > 107 µM
IC50: > 107 µM

CCCC(CC)c1c(O)c(O)c(C(CC)CCC)c(C(CC)CCC)c1C(CC)CCC (stereo not drawn)
EC50: > 100 µM
IC50: 15.5 µM

CCCCC(=S)SSC(C)(C)C
EC50: > 200 µM
IC50: 55 µM

O=C1NC(=S)N/C1=C\c1ccccc1
EC50: > 200 µM
IC50: 178 µM

CC(=O)N(/N=C1\CC(c2ccccc2)Oc2ccccc21)C(C)=O (stereo not drawn)
EC50: > 200 µM
IC50: 102 µM

CC1(C)C2CC[C@]3(C)C(C(=O)C=C4[C@@H]5C[C@@](C)(C(=O)O)CC[C@]5(C)CCC43C)[C@@]2(C)CC[C@@H]1OC1OC(C(=O)O)C(O)C(O)C1OC1OC(C(=O)O)C(O)C(O)C1O (stereo partly drawn) (tested in a mixture with another compound)
outcome: inactive

C/C=C(\C1CC(=O)N2CCc3c([nH]c4ccccc34)C2C1)[Si](C)(C)C (stereo not drawn)
EC50: > 14.8 µM
IC50: > 14.8 µM

Nc1scc2[nH]c3ccccc3[n+]12
EC50: > 200 µM
IC50: 15.5 µM

CN(C)C(=C1c2cc([N+](=O)[O-])ccc2-c2ccc([N+](=O)[O-])cc21)N(C)C
EC50: > 200 µM
IC50: 10.7 µM

C/C(=N\OCC(O)CNC(C)C)c1ccc2c(c1)NC(=O)CS2 (stereo not drawn)
outcome: inactive

CC(=O)NS(=O)(=O)c1ccc(NC(=O)c2ccccc2SC(=O)CCCCBr)cc1
EC50: 12.3 µM
IC50: 148 µM

COc1cc(C2C(Cl)C(=O)N2NC(=O)c2ccccc2O)ccc1O (stereo not drawn)
EC50: > 27.5 µM
IC50: > 27.5 µM

CNc1ncnc2c1ncn2C1C=CC(COS(N)(=O)=O)C1 (stereo not drawn)
EC50: > 200 µM
IC50: > 200 µM

CN1C(=O)C(CCO)(C(C)(C)C)c2ccccc21 (stereo not drawn)
EC50: > 200 µM
IC50: > 200 µM

COc1cc(N=Nc2ccccc2C(=O)O)cc(/C=N\NNC(N)=S)c1O
EC50: > 67.6 µM
IC50: 32.4 µM

COC(=O)C1=CC(NC(=O)OCc2ccccc2)C(C(=O)c2ccccc2)C[C@@H]1Sc1ccccc1 (stereo partly drawn)
outcome: inactive

CSC12c3cc(C)n(-c4ccc([N+](=O)[O-])cc4)c3CC(C)(C)CN1C(=O)C2Oc1ccccc1 (stereo not drawn)
EC50: > 200 µM
IC50: 49 µM

CC12c3ccccc3C(c3ccccc31)C1C(=O)OC(=O)C12 (stereo not drawn)
EC50: > 135 µM
IC50: 21.4 µM

COC(=O)C1C(O)C(C)C(O)C(C)C=C(C)C2=C3C(=C(C)C(=O)c4c(O)c(c(C)c(OC(C)=O)c43)NC(=O)C(C)=C/C=C\C(C)C(O)C(C)C1O)OCO2 (stereo not drawn)
EC50: > 77.6 µM

Cc1c(O)c2ccccc2c2c1sc(NCCCN(CCO)CCO)[n+]2C
EC50: > 200 µM
IC50: 11.2 µM

CCN(CC)C(=O)C1(C)NS(=O)(=O)c2ccccc2C1=O (stereo not drawn)
EC50: > 200 µM
IC50: > 200 µM

COc1ccc(-c2c(C)oc3cc(OC(C)=O)ccc3c2=O)cc1
EC50: > 200 µM
IC50: 30.9 µM

CN1CC(C(=O)NC2(C)OC3(O)C4CCCN4C(=O)C(Cc4ccccc4)N3C2=O)C=C2c3cccc4[nH]cc(c34)CC21 (stereo not drawn)
EC50: > 61.7 µM
IC50: 28.8 µM

Cc1ccc(NC(=O)CCc2cc(C(C)(C)C)nc(NC#N)n2)cc1C
outcome: inactive

COc1ccc(-n2c(SC(CN3CCOCC3)CN3CCCC3=O)nc3ccccc3c2=O)cc1 (stereo not drawn)
EC50: > 200 µM
IC50: 56.2 µM

N#Cc1ccccc1NC(=O)C(=O)C1NC(=S)NC1=O (stereo not drawn)
outcome: inactive

CNC(=O)OCc1c(COC(=O)NC)c2n(c1C)-c1ccc(OC)cc1CCC2
EC50: > 123 µM
IC50: 2.14 µM

O=P1(N2CCOCC2)OCCO1
EC50: > 200 µM
IC50: > 200 µM

O=S(=O)(C1=CC(S(=O)(=O)c2ccccc2)CN(Cc2ccccc2)C1c1cccc2ccccc12)c1ccccc1 (stereo not drawn)
outcome: inactive

Cc1cc(=O)n(-c2ccccc2)c(=O)n1-c1nc2ccccc2[nH]1
EC50: > 112 µM
IC50: 64.6 µM

CC(=O)Nc1nc(NC(C)=O)c(N=O)c(NC(C)=O)n1
EC50: > 200 µM
IC50: 115 µM

CC(C)=CCC/C(C)=C/CC/C(C)=C/Cc1c[nH]c2ccccc12
EC50: > 6.17 µM
IC50: > 6.17 µM

CC(=O)OC1CC[C@]2(C)C3CC[C@@]4(C)C(CCC4[C@H](C)CCCC(C)C)[C@@H]3CCC2(Br)C1 (stereo partly drawn)
outcome: inactive

CC1(C)CC(/C=C\c2coc3ccc(Cl)cc3c2=O)=C(C#N)C(=O)O1
EC50: > 7.59 µM
IC50: > 7.59 µM

CCCCN(CCCC)CC(C(=O)Nc1ccc([N+](=O)[O-])cc1[N+](=O)[O-])/C(C)=N\NC(=S)NN (stereo not drawn)
EC50: > 52.5 µM
IC50: > 52.5 µM

OCCO[P+]1(OCCO)n2c3ccc2C(c2ccccc2)=C2C=CC(=N2)C(c2ccccc2)=c2ccc(n21)=C(c1ccccc1)C1=NC(=C3c2ccccc2)C=C1
EC50: > 0.2 µM
IC50: 0.0813 µM

COc1cc(C2C(C(=O)Nc3cc(F)c(F)cc3F)=C(C)NC(C)=C2C(=O)Nc2cc(F)c(F)cc2F)ccc1O
EC50: > 32.4 µM
IC50: > 32.4 µM

O=C(O)c1ccc(NNc2cc(=O)[nH]c(=O)[nH]2)cc1
EC50: > 200 µM
IC50: 107 µM

Nc1ccc2c(c1)C(N)c1ccccc1-2 (stereo not drawn)
EC50: > 200 µM
IC50: 55 µM

NC(=O)NO
outcome: inactive
IC50: 112 µM

CC(=O)NCCCCNCCCNC(C)=O
EC50: > 200 µM
IC50: > 200 µM

Fc1ccc(N=C2C=CC(=Nc3ccc(F)cc3)c3ccccc32)cc1
outcome: inactive

COP(=O)(CC(=O)C1OC(C)(C)OC1C(O)COCc1ccccc1)OC (stereo not drawn)
EC50: > 324 µM
IC50: > 324 µM

CN(C)C(=O)OC1C(=O)N(C)c2ccc(Cl)cc2C2(c3ccccc3)N1C2(Cl)Cl (stereo not drawn)
EC50: > 200 µM
IC50: 10.7 µM

O=C(Nc1cccc(C(F)(F)F)c1)C(=O)C1NC(=S)NC1=O (stereo not drawn)
EC50: > 191 µM
IC50: > 191 µM

Cc1ccc(S(=O)(=O)N/N=C2\CCC3(O)CC2(C)CCC2C3CC2(C)C)cc1 (stereo not drawn)
EC50: 28.2 µM
IC50: 51.3 µM

O=C1CC(NC(=O)C(F)(F)F)c2c(Br)sc(N3CCNCC3)c21 (stereo not drawn)
EC50: > 200 µM
IC50: 162 µM
